# ChEMBL document CHEMBL1149251, “Acetylcholinesterase inhibitory activity of scopolin and scopoletin discovered by virtual screening of natural products” (J Med Chem, 2004)
# pIC50: −log10 of the molar value.
# Key:
# Acetylcholinesterase [1] = biological target: T1, Acetylcholinesterase (Homo sapiens, UniProt P22303); assay: Inhibition of AChE by microplate assay
# Rattus norvegicus [2] = assay: Increase in extracellular acetylcholine in urethane anesthetized Sprague-Dawley rat nucleus accumbens; type: functional
# Rattus norvegicus [3] = assay: Increase in extracellular acetylcholine in urethane anesthetized Sprague-Dawley rat nucleus accumbens at 2 umol relative to basal release; type: functional
# Rattus norvegicus [4] = assay: Increase in extracellular acetylcholine at 1 uM in urethane anesthetized Sprague-Dawley rat nucleus accumbens; type: functional
# Rattus norvegicus [5] = assay: Increase in extracellular acetylcholine at 2 uM in urethane anesthetized Sprague-Dawley rat nucleus accumbens; type: functional
# Acetylcholinesterase [6] = biological target: T1, Acetylcholinesterase; assay: Inhibition of AChE at 1000 uM by microplate assay
# T1 sequence (P22303 whole entry): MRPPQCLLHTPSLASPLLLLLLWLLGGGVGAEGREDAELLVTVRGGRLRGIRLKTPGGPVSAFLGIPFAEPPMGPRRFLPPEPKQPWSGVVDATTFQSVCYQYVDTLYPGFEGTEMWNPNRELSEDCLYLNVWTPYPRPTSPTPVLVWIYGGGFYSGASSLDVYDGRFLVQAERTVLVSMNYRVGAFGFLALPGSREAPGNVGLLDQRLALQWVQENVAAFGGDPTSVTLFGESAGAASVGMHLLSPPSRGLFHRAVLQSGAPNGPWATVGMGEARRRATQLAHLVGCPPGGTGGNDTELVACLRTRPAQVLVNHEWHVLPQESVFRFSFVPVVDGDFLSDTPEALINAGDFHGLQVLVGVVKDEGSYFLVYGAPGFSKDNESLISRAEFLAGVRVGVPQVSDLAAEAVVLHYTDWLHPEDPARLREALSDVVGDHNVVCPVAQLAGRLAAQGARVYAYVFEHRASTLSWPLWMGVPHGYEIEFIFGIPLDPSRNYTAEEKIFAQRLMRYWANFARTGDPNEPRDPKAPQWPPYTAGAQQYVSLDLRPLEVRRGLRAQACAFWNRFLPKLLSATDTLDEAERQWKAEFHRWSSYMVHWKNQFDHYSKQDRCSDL
structure (smiles),measurement,setting,value
COc1cc2ccc(=O)oc2cc1O [SCOPOLETIN],pIC50,Acetylcholinesterase [1],3.77
same,Activity,Rattus norvegicus [2],1.74
same,Activity,Rattus norvegicus [3],170%
COc1ccc2c3c1O[C@H]1C[C@@H](O)C=C[C@@]31CCN(C)C2 [GALANTAMINE],Activity,Rattus norvegicus [4],1.78
same,Activity,Rattus norvegicus [5],1.68
COc1cc2ccc(=O)oc2cc1O[C@@H]1O[C@H](CO)[C@@H](O)[C@H](O)[C@H]1O [SCOPOLIN],Activity,Acetylcholinesterase [1],Dose-dependent effect
same,inhibition,Acetylcholinesterase [6],30.1%
same,Activity,Rattus norvegicus [2],3.18
same,Activity,Rattus norvegicus [3],300%
